“Also recorded” adds a separate entry of the source.
Experiments:
ABCA1 [1] = assay: Cholesterol efflux in the absence and presence of ABCA1 (mouse macrophages and HeLa cells transfected with ABCA1 cDNA); type: cell-based; conditions: 8 hours, saturating peptide >30-fold Km
Source text: The large excess of polypeptide was provided to determine the extent (if any) of non-specific efflux, in the absence of ABCA1 induction.

ABCA1 [2] = target: T1, ABCA1 (Mus musculus, UniProt P41233); assay: ABCA1 protein stabilization in J774 macrophages (Western blot); type: cell-based; set-up: endogenous in cells; host or cells: J774 mouse macrophages; conditions: 6 hours serum-free medium, no cAMP
Description: In some embodiments, the stabilization of ABCA is measured by direct measurement of ABCA (e.g., ABCA protein, or nucleic acid) using a cell based assay. Cell based assays can be performed in any cells in which ABCA is expressed (e.g., J774 macrophages), including cells which have been transfected with ABCA (e.g. HeLa cells). Any cell type can be used. For example, J774 macrophages can be used to assess relative ABCA1 protein levels in the presence and absence of polypeptides of the invention. The cells are first contacted with a compound that will induce ABCA (e.g., cAMP or a cAMP analogue such as, 8-bromo-cAMP) to upregulate ABCA (e.g., ABCA1) expression, then exposed to […] polypeptides of the invention in the absence of the cAMP stimulus to evaluate whether ABCA1 protein was stabilized or degraded. Relative levels of ABCA1 protein can be assessed using any means known in the art including, e.g., immunoblot analysis of cell membranes (Oram et al., J. Biol. Chem., 278:52379-52385 (2003)) or hybridization of nucleic acid probes to ABCA mRNA.
To test whether the polypeptides of the present invention stabilize cellular ABCA1 protein concentrations, J774 mouse macrophages were treated with a cAMP analogue (24 h) to upregulate ABCA1 expression. […] ABCA1 protein in cell lysates was determined by Western blot analysis. […]

ABCA1 [3] = target: T1, ABCA1; assay: Cholesterol efflux from [3H]cholesterol-labeled ABCA1-expressing J774 mouse macrophages; type: cell-based; set-up: to upregulate cellular ABCA1 protein; endogenous in cells; host or cells: J774 mouse macrophages
J774 macrophages = assay: Pretreatment of macrophages, then Apo A-I-mediated cholesterol efflux; type: cell-based, mouse; conditions: 4 hour pretreatment, vs serum-free medium alone; Apo A-I 10 μg/ml
Description: To determine whether conditioning of macrophages with the polypeptide of SEQ ID NO:4 upregulates cholesterol efflux to native apolipoproteins, J774 macrophages labeled with [^3H]cholesterol were induced for the ABCA1 response using a cAMP analog (24 h). This was followed by a 4 hour treatment (no cAMP) with serum-free medium alone or medium containing the polypeptide of SEQ ID NO:4. After 4 h with no cAMP, cholesterol efflux was initiated by adding fresh medium containing Apo A-I (10 μg/ml). Polypeptide of SEQ ID NO:4 pretreatment produced a 40% increase in Apo A-I-mediated cholesterol efflux from macrophages, compared to pretreatment with serum-free medium alone (see, FIG. 6).

[4] = system: Apolipoprotein E deficient (Apo E −/−) mice; assay: Established atherosclerosis in Apo E -/- mice on high-fat diet (Example 18); type: in vivo, mouse; conditions: 10 mg/kg IP at 2-day intervals
Description: Male Apolipoprotein E deficient (Apo E −/−) mice (six-weeks of age) were fed a high-fat diet for 26 weeks. During the last 6 weeks on the high-fat diet, the mice received intraperitoneal (IP) injections of either saline or the polypeptide of SEQ ID NO:4 (10 mg/kg) at 2-day intervals. […] The effect of the polypeptide reducing established atherosclerosis was highly significant, as judged by the lipid-content of plaques in the aortic sinus (see, FIG. 18). This was accomplished using the lipid-free polypeptide of SEQ ID NO:4 composed of all L-amino acids administered in the continued presence of the dietary insult.

Interleukin-6 = assay: Serum Interleukin-6 in ApoE -/- mice (fluorescent bead immunoassay); type: in vivo, mouse
Source text: Apolipoprotein E deficient (ApoE −/−) mice at 6 weeks old were given a Western diets for 18 weeks before commencing treatment. Once daily, intraperitoneal injections were given as saline or the polypeptide of SEQ ID NO:4 (n=6-7 per group). At termination, serum was collected and analyzed for Interleukin-6 concentration by a fluorescent bead immunoassay utilizing flow cytometry (BMS820FF). Mice treated with the polypeptide of SEQ ID NO:4 had about 68% lower serum levels of IL-6 (see, FIG. 22).

T1 sequence (P41233 whole entry): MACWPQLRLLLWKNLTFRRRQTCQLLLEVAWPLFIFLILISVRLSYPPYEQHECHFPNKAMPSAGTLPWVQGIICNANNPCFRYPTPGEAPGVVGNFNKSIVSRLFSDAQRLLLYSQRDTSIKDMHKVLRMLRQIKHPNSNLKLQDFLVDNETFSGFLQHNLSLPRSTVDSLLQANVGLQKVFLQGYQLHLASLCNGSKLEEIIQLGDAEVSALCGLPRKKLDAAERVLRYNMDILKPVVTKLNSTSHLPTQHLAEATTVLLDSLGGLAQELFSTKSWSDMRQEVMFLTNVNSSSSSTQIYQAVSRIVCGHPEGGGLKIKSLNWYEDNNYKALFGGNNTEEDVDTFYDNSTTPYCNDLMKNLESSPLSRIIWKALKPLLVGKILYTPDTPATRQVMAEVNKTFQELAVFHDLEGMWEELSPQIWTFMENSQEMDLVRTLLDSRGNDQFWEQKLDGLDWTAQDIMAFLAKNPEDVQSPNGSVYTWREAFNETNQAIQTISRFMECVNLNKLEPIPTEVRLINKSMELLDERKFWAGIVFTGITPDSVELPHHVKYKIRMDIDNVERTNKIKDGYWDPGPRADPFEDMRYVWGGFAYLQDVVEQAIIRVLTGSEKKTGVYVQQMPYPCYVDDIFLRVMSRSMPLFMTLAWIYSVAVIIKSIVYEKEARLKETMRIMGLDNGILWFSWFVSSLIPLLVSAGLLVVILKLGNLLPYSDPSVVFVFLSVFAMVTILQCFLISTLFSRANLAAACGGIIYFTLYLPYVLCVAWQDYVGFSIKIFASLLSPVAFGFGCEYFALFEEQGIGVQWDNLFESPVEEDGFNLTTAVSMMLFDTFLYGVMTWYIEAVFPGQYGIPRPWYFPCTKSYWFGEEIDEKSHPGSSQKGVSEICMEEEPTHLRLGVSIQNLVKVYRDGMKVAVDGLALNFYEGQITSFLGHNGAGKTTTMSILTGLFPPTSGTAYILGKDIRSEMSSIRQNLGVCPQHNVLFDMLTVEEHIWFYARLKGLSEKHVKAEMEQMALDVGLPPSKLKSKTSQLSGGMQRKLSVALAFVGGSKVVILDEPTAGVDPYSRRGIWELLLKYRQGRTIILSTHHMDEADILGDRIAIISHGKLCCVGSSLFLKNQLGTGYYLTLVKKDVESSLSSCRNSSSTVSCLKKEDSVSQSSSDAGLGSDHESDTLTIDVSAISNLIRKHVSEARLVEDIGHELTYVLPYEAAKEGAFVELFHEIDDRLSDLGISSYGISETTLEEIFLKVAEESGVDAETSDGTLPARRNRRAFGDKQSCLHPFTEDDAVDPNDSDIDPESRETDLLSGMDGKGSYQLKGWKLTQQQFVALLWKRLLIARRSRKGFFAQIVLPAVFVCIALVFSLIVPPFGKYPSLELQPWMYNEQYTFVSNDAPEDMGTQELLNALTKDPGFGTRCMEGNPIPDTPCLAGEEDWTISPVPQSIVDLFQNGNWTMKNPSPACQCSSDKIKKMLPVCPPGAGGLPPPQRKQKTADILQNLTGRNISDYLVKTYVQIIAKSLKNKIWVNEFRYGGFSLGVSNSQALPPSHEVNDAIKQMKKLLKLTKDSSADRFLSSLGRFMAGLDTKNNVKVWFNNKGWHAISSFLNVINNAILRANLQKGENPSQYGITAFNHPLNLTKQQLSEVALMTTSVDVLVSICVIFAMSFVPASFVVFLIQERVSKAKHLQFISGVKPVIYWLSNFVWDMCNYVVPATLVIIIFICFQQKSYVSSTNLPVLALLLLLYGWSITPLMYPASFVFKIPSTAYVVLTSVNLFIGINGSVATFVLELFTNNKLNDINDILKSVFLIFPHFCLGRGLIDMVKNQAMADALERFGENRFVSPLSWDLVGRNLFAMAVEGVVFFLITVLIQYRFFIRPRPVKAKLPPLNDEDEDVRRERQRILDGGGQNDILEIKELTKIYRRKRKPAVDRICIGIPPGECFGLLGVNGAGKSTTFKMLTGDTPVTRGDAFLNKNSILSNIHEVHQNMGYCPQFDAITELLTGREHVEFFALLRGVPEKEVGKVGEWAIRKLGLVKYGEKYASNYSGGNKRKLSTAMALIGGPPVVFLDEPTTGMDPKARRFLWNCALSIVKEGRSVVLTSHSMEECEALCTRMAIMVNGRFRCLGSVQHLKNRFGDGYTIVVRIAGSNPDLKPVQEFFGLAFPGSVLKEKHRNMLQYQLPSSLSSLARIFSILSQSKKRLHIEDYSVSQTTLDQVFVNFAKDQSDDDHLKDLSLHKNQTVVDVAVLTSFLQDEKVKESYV

Sequence: EVRSKLEEWFAAFREFAEEFLARLKS (ATI-5261 amphipathic alpha-helix polypeptide core sequence selectively binds HDL, high-affinity ligand for ATP-binding cassette transporter A1 (ABCA1), ABCA1-lipid cholesterol efflux, ABCA1-stablization, anti-oxidant and anti- inflammatory activity) [SEQ ID NO:4]
- non-specific efflux activity in the absence of ABCA1 (ABCA1 [1]): minimal
- requirement of ABCA1 for cholesterol efflux activity (ABCA1 [1]; mouse macrophages and ABCA1-transfected HeLa): required ABCA1 for efflux activity
- ABCA1 protein in cell lysates after cAMP withdrawal (ABCA1 [2]): prevented the disappearance of ABCA1 protein
- cholesterol efflux efficiency/potency on per molecule (molar) basis versus apolipoproteins (ABCA1 [3]; Km in molar units): molar potency similar to that of apolipoproteins; also recorded: activity similar to full-length Apo A-I, Apo E, and the C-terminal (CT) domain of Apo E
- cholesterol efflux at low mass concentrations (ABCA1 [3]; increasing concentrations based on mass): relatively high-levels of cholesterol efflux
- more potent than ApoA-I in stimulating cholesterol efflux (ABCA1 [3]; mass basis, over working concentration range): at least 300%
- increase in Apo A-I-mediated cholesterol efflux after pretreatment (J774 macrophages): 40%
- effect on established atherosclerosis (in words) ([4]; 6 weeks): reduced aortic plaque lipid content; also recorded: significantly reduced established atherosclerosis
- greater atherosclerosis in saline control mice compared to treated mice ([4]; last 6 weeks of 26 weeks high-fat diet, lipid-content of aortic sinus plaques): 38%
- serum IL-6 versus saline (in words) (Interleukin-6; mouse, in vivo): lowered levels of the inflammatory cytokine IL-6
- lower serum levels of IL-6 (Interleukin-6; once daily IP, vs saline, after 18 weeks Western diet): about 68%
